This note sets out measurements from US20260167622A1, “PAN-KRAS DEGRADING AGENT, AND PREPARATION METHOD THEREFOR AND USE THEREOF” (LEADINGTAC PHARMACEUTICAL (SHAOXING) CO., LTD., priority 2022, published 2026).

Format in all cases: cell-based
Assay [1] relates to KRAS G12V mutant human lung squamous carcinoma cell SW900. The assay can be described thus: 3D cell proliferation inhibition assay, SW900. The following applies: SW900, 168 h, 3D culture, 7 days, CTG.
The subject of assay [2] is KRAS G13D mutant human colorectal cancer epithelial cell DLD-1. The assay can be described thus: 3D cell proliferation inhibition assay, DLD-1. The conditions noted are these: DLD-1, 168 h, 3D culture, 7 days, CTG. In short, it runs like this:
(§1)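 Cells seeded in low-adsorption plates at 5×10^2 cells/well (MKN1 1×10^3) with compounds at final 10000–0.026 nM, 0.2% DMSO, 3D culture 7 days at 37 °C. Viability by CellTiter-Glo luminescence; inhibition normalised to DMSO and medium-only controls, IC50 from nonlinear log-concentration fit.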

The test system of assay [3] is KRAS WT human gastric cancer cell MKN1. The assay can be described thus: 3D cell proliferation inhibition assay, MKN1. The conditions noted are these: MKN-1, 168 h, 3D culture, 7 days, CTG. The procedure, abridged: as §1
For assay [4], the system named is KRAS G12D mutant human gastric cancer cell AGS. The assay is described as follows: 3D cell proliferation inhibition assay, AGS. The conditions noted are these: 168 h, 3D culture, 7 days, CTG. The source says: (§2) Test Example 6: 3D Cell Proliferation Inhibition Assay
(§3) The inhibitory effects of the compounds on 3D cell proliferation were investigated on KRAS G12C mutant human non-small cell lung cancer cell NCI-H358, KRAS G12D mutant human lung cancer cell A427, KRAS G12D mutant human gastric cancer cell AGS, KRAS G12D mutant human metastatic pancreatic cancer cell AsPc-1, KRAS G12V mutant human lung squamous carcinoma cell SW900, KRAS G12V mutant human colorectal cancer cell SW620, KRAS G13D mutant human colorectal cancer epithelial cell DLD-1, and KRAS WT human gastric cancer cell MKN1. The specific procedures were as follows:
(§4) 10 μL of each compound solution diluted in a gradient was added to corresponding wells of a 96-well low-adsorption microplate (PerkinElmer), so that the final concentrations of the test compounds in the reaction system were in a range of 10000-0.026 nM. The final concentration of DMSO was 0.2%. Then 90 µL of cells were correspondingly seeded into each well to achieve a cell density of 5×10^2 cells/well (the cell density of SW900 was 5×10^3 cells/well, and the cell density of MKN1 was 1×10^3 cells/well). In addition to test wells for the test compounds, both a DMSO control well and a medium control well were set, with the DMSO control well containing DMSO and cells and the medium well containing only a medium. After the sample loading, the 96-well low-adsorption microplate was incubated in an incubator at 37° C. with […] for 7 days. After 7 days, the microplate was taken out, and 100 μL of CTG reagent (Promega) was added to each well. The plate was incubated at room temperature for 60 m and read on a microplate reader EnVision by the chemiluminescence program. The inhibition rates of the compounds at each concentration were calculated using the formula for the percentage inhibition of cell proliferation: inhibition rate 00=(mean value of DMSO control group−single concentration reading value of compound)/(mean value of DMSO control group−mean value of medium control group)×100. Then non-linear curve fillings for logarithmic concentration-inhibition rate were performed by GraphPad Prism 8, and the IC50 values of the compounds were obtained (Table 6).

Assay [5] concerns KRAS G12D mutant human metastatic pancreatic cancer cell AsPc-1. The assay is described as follows: 3D cell proliferation inhibition assay, AsPc-1. The conditions noted are these: ASPC1, 168 h, 3D culture, 7 days, CTG. The procedure, abridged:
as §1

Assay [6] relates to KRAS G12C mutant human non-small cell lung cancer cell NCI-H358. The assay can be described thus: 3D cell proliferation inhibition assay, NCI-H358. The conditions noted are these: NCI-H358, 168 h, 3D culture, 7 days, CTG. The procedure, abridged:
as §1

Assay [7] has as its system KRAS G12D mutant human lung cancer cell A427. The assay is described as follows: 3D cell proliferation inhibition assay, A427. The conditions noted are these: A-427, 168 h, 3D culture, 7 days, CTG.
Excerpt: as §2, §3, §4

In assay [8] the target is T1, KRAS G12V protein in SW900 cells (Homo sapiens, UniProt P01116, G12V).
T1 construct: endogenous in cells; host or cells: SW900
T1 sequence (P01116 1-188 isoform P01116-2 G12V): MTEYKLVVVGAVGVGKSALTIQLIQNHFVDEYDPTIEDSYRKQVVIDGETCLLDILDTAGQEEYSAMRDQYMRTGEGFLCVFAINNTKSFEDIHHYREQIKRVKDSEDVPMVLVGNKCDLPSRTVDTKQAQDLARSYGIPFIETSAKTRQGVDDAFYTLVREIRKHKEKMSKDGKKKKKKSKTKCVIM
The assay is described as follows: KRAS degradation assay (Western Blot) in SW900 cells. The conditions noted are these: 24 h. In short, it runs like this: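 Cells seeded at 5×10^5 cells/well, incubated overnight, then treated 24 h at 37 °C with compound (final 0.03–3000 nM, 0.25% DMSO). KRAS in lysates measured by Western blot with β-actin normalisation; degradation versus vehicle control fitted to give DC50 and Dmax.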

Assay [9] deals with KRAS G12V mutant human colorectal cancer cell SW620. The assay is described as follows: 3D cell proliferation inhibition assay, SW620. The conditions noted are these: SW-620, 168 h, 3D culture, 7 days, CTG. The procedure, abridged:
as §1

Structures are written as SMILES.

For the molecule `C#Cc1c(F)ccc2cc(O)cc(-c3ncc4c(N5CCC[C@@](C)(O)C5)nc(OCC5(CN6CCN(CCC7CCC8(CC7)CCN(C(=O)c7ccc(Cl)c(N9CCC(=O)NC9=O)c7)CC8)CC6)CC5)nc4c3F)c12` [Example 9, (R)-1-(2-chloro-5-(9-(2-(4-((1-(((7-(8-ethynyl-7-fluoro-3-hydroxynaphthalen-1-yl)-8-fluoro-4-(3-hydroxy-3-methylpiperidin-1-yl)pyrido[4,3-d]pyrimidin-2-yl)oxy)methyl)cyclopropyl)methyl)piperazin-1-yl)ethyl)-3-azaspiro[5.5]undecane-3-carbonyl)phenyl)dihydropyrimidine-2,4(1H,3H)-dione], the IC50 was not above 50 nM in [1]; not above 50 nM in assay [2]; not above 50 nM in assay [3]; not above 50 nM in [4]; 50 to 100 nM in assay [5]; not above 50 nM in assay [6]. For the same molecule, in [7], the IC50 is not above 50 nM. The molecule further registered a DC50 in [8] not above 50 nM. In assay [8], this molecule returned a maximal degradation (Dmax) of 80 to 100%.

Consider `C#Cc1c(F)ccc2cc(O)cc(-c3ncc4c(N5CCC[C@@](C)(O)C5)nc(OCC5(CN6CCC(COCCC7CCN(C(=O)c8ccc(Cl)c(N9CCC(=O)NC9=O)c8)CC7)CC6)CC5)nc4c3F)c12` [Example 10, (R)-1-(2-chloro-5-(4-(2-((1-((1-(((7-(8-ethynyl-7-fluoro-3-hydroxynaphthalen-1-yl)-8-fluoro-4-(3-hydroxy-3-methylpiperidin-1-yl)pyrido[4,3-d]pyrimidin-2-yl)oxy)methyl)cyclopropyl)methyl)piperidin-4-yl)methoxy)ethyl)piperidine-1-carbonyl)phenyl)dihydropyrimidine-2,4(1H,3H)-dione], for which the IC50 in assay [1] was not above 50 nM; in assay [2], 50 to 100 nM; in [3], not above 50 nM; in assay [4], not above 50 nM; in assay [5], 50 to 100 nM; in [6], not above 50 nM. For the same molecule, in assay [7], the concentration for half-maximal inhibition (IC50) fell in the range of 50 to 100 nM. The 50% degradation concentration (DC50) in [8] is not above 50 nM. The Dmax in assay [8] was 80 to 100%.

As to `CCc1c(F)ccc2cc(O)cc(-c3ncc4c(N5CCC[C@@](C)(O)C5)nc(OCC5(CN6CCN(CC7CCC8(CC7)CCN(C(=O)c7ccc(C)c(N9CCC(=O)NC9=O)c7)CC8)CC6)CC5)nc4c3F)c12` [Example 19, (R)-1-(5-(9-((4-((1-(((7-(8-ethyl-7-fluoro-3-hydroxynaphthalen-1-yl)-8-fluoro-4-(3-hydroxy-3-methylpiperidin-1-yl)pyrido[4,3-d]pyrimidin-2-yl)oxy)methyl)cyclopropyl)methyl)piperazin-1-yl)methyl)-3-azaspiro[5.5]undecane-3-carbonyl)-2-methylphenyl)dihydropyrimidine-2,4(1H,3H)-dione], the IC50 in assay [1] is not above 50 nM; in [2] it was not above 50 nM; in assay [3], not above 50 nM; in assay [9], 0.82 nM; in assay [4], not above 50 nM; in assay [5], not above 50 nM. Moreover, the IC50 in assay [6] is not above 50 nM; in assay [7], 100 to 500 nM. In [8], the DC50 is not above 50 nM. The same molecule returned a Dmax in assay [8] of 80 to 100%.

Regarding `CCc1cccc2cc(O)cc(-c3ncc4c(N5CCC[C@@](C)(O)C5)nc(OCC5(CN6CCN(CC7CCC8(CC7)CCN(C(=O)c7ccc(OC)c(N9CCC(=O)NC9=O)c7)CC8)CC6)CC5)nc4c3F)c12` [Example 25, (R)-1-(5-(9-((4-((1-(((7-(8-ethyl-3-hydroxynaphthalen-1-yl)-8-fluoro-4-(3-hydroxy-3-methylpiperidin-1-yl)pyrido[4,3-d]pyrimidin-2-yl)oxy)methyl)cyclopropyl)methyl)piperazin-1-yl)methyl)-3-azaspiro[5.5]undecane-3-carbonyl)-2-methoxyphenyl)dihydropyrimidine-2,4(1H,3H)-dione], the IC50 in assay [1] was not above 50 nM; in assay [2], not above 50 nM; in assay [3], not above 50 nM; in assay [9], 2.45 nM; in [4], not above 50 nM; in assay [5], not above 50 nM. For the same molecule, the IC50 in assay [6] and in assay [7] was 100 to 500 nM in each case. In assay [8], this molecule showed a DC50 not above 50 nM. This molecule also had a Dmax in assay [8] of 80 to 100%.

For `CCc1cccc2cc(O)cc(-c3ncc4c(N5CCC[C@@](C)(O)C5)nc(OCC5(CN6CCN(CC7CCC8(CC7)CCN(C(=O)c7ccc(C)c(N9CCC(=O)NC9=O)c7)CC8)CC6)CC5)nc4c3F)c12` [Example 26, (R)-1-(5-(9-((4-((1-(((7-(8-ethyl-3-hydroxynaphthalen-1-yl)-8-fluoro-4-(3-hydroxy-3-methylpiperidin-1-yl)pyrido[4,3-d]pyrimidin-2-yl)oxy)methyl)cyclopropyl)methyl)piperazin-1-yl)methyl)-3-azaspiro[5.5]undecane-3-carbonyl)-2-methylphenyl)dihydropyrimidine-2,4(1H,3H)-dione], the IC50 in assay [1] is not above 50 nM; in [2], not above 50 nM; in assay [3], not above 50 nM; in [9] it was 2.11 nM; in assay [4], not above 50 nM; in assay [5], not above 50 nM. Besides, the IC50 in assay [6] and in [7] was 100 to 500 nM in each case. The DC50 in assay [8] was not above 50 nM. In assay [8], this molecule showed a Dmax of 80 to 100%.

As for `CCc1cccc2cc(O)cc(-c3ncc4c(N5CCC[C@@](C)(O)C5)nc(OCC5(CN6CCN(CC7CCC8(CC7)CCN(C(=O)c7ccc(F)c(N9CCC(=O)NC9=O)c7)CC8)CC6)CC5)nc4c3F)c12` [Example 28, (R)-1-(5-(9-((4-((1-(((7-(8-ethyl-3-hydroxynaphthalen-1-yl)-8-fluoro-4-(3-hydroxy-3-methylpiperidin-1-yl)pyrido[4,3-d]pyrimidin-2-yl)oxy)methyl)cyclopropyl)methyl)piperazin-1-yl)methyl)-3-azaspiro[5.5]undecane-3-carbonyl)-2-fluorophenyl)dihydropyrimidine-2,4(1H,3H)-dione], the IC50 in assay [1], in assay [2], in assay [3], in [4], in [5] and in assay [6] was not above 50 nM in each case. The molecule also had an IC50 in [7] of 100 to 500 nM. In assay [8], this molecule returned a DC50 not above 50 nM. Also, the Dmax in assay [8] was in the range of 80 to 100%.

`C#Cc1c(F)ccc2cc(O)cc(-c3ncc4c(N5CCC[C@@H](O)C5)nc(OCC5(CN6CCN(CC7CCC8(CC7)CCN(C(=O)c7ccc(C)c(N9CCC(=O)NC9=O)c7)CC8)CC6)CC5)nc4c3F)c12` [Example 45, (R)-1-(5-(9-((4-((1-(((7-(8-ethynyl-7-fluoro-3-hydroxynaphthalen-1-yl)-8-fluoro-4-(3-hydroxypiperidin-1-yl)pyrido[4,3-d]pyrimidin-2-yl)oxy)methyl)cyclopropyl)methyl)piperazin-1-yl)methyl)-3-azaspiro[5.5]undecane-3-carbonyl)-2-methylphenyl)dihydropyrimidine-2,4(1H,3H)-dione]: the IC50 in assay [1] is not above 50 nM; in [2], not above 50 nM; in assay [3], 50 to 100 nM; in assay [4], not above 50 nM; in assay [5] it was not above 50 nM; in assay [6], 100 to 500 nM. The molecule also gave an IC50 in assay [7] of 50 to 100 nM. The molecule further had a DC50 in assay [8] not above 50 nM. The molecule also registered a Dmax in assay [8] of 80 to 100%.

In general, IC50 refers to the concentration needed to halve the response being measured. The DC50 is the concentration giving 50% degradation. A lower DC50 goes with degradation at low concentration. As a reminder, the Dmax is the largest share of the target that was removed. Low readings indicate a partial loss of target, high ones a fuller loss of target.
